How the values were obtained:
T. tonsurans [1] = assay: Disk diffusion assay, zone of inhibition; format: cell-based, Trichophyton tonsurans; conditions: 250 μg. disk^−1; incubated at room temperature 42-120 hrs
Text: (§1) Agar: Czapek Malt Agar (Himedia laboratories Ltd.) was used for culturing Microsporumn gypseum, Trichophyton mentagrophytes T. tonsurans, T. violaceum, Aspergillus fresenii and A. niger. Mycological Agar (Himedia Laboratories Ltd) was used for Cryptococcus neoformans and Candida sp.
(§2) Pathogenic fungal strains of yeast and filamentous fungi identified and gifted by Dr. Savio from Goa Medical College, Bambolim, were used for the test. Strains of Aspergillus were isolated from the infected wheat bread with sterile needle; fungal material was surface sterilized using 0.5% sodium hypochlorite for 2-3 minutes, and then washed with small brush in sterile distilled water. Washed fungal material was transferred using needle into the sterile culture media and subcultured for purification by following standard methods (Collins and Taylor, 1967). Taxonomic identification was done by using various standard keys (Ainswort et al., 1973; Onion et al., 1981) and identification confirmed by Alka Pandey of Agarkar Research Institute, Pune.
Disk diffusion assay: The disk diffusion assay was used for screening of antifungal activity of the compound. The stock solution for the test was prepared by dissolving 5 mg of the compound of formula 1 in 200 μl dimethylsulfoxide (DMSO). […] The zones of inhibition around the disks were measured.

Aspergillus fresenii [2] = assay: Disk diffusion assay, zone of inhibition; format: cell-based; conditions: 250 μg. disk^−1; incubated at room temperature 42-120 hrs
Text: as §1, §2
(§3) Disk diffusion assay: The disk diffusion assay was used for screening of antifungal activity of the compound. The stock solution for the test was prepared by dissolving 5 mg of the compound of formula 1 in 200 μl dimethylsulfoxide (DMSO). From the stock solution 10 μl were spread on the paper disc so as to obtain the final concentration of 250 μg disk^−1 Control disk was applied reconstituted with only dimethylsulphoxide and were dried at 28-29° C. Completely dried disk was applied to innoculated plates. The plates were incubated at room temperature for the period between 42-120 hrs. to obtain maximum growth in the culture media. The zones of inhibition around the disks were measured.

Aspergillus niger [3] = assay: Disk diffusion assay, zone of inhibition; format: cell-based; conditions: 250 μg. disk^−1; incubated at room temperature 42-120 hrs
Text: as §1, §2, §3

Candida sp. [4] = assay: Disk diffusion assay, zone of inhibition; format: cell-based; conditions: 250 μg. disk^−1; incubated at room temperature 42-120 hrs
Text: as §1, §2, §3

Cryptococcus neoformans [5] = assay: Disk diffusion assay, zone of inhibition; format: cell-based; conditions: 250 μg. disk^−1; incubated at room temperature 42-120 hrs
Text: as §1, §2, §3

Microsporum gypseum [6] = assay: Disk diffusion assay, zone of inhibition; format: cell-based; conditions: 250 μg. disk^−1; incubated at room temperature 42-120 hrs
Text: as §1, §2, §3

T. violaceum [7] = assay: Disk diffusion assay, zone of inhibition; format: cell-based; conditions: 250 μg. disk^−1; incubated at room temperature 42-120 hrs
Text: as §1, §2, §3

[8] = tested on: Trichophyton mentagrophytes; assay: Disk diffusion assay, zone of inhibition; format: cell-based; conditions: 250 μg. disk^−1; incubated at room temperature 42-120 hrs
Text: as §1, §2, §3

T. tonsurans [9] = assay: Minimum Inhibitory Concentration (MIC), disk diffusion method; format: cell-based, Trichophyton tonsurans; conditions: 3.12-50 μg per disk tested, 42-120 hrs at room temperature
Text: as §1, §2
Innocula were adjusted to 100 μl of Cryptococcus neoformans, Candida sp., Microsporum gypseum, Trichophyton tonsurans, T. violaceum and Trichophyton mentagrophytes and spread on the appropriate plates, excess moisture was allowed to absorb for 10 minutes before applying disks. […]

Aspergillus fresenii [10] = assay: as above; format: cell-based; conditions: 3.12-50 μg per disk tested, 42-120 hrs at room temperature
Text: as §1, §2
(§4) Innocula were adjusted to 100 μl of Cryptococcus neoformans, Candida sp., Microsporum gypseum, Trichophyton tonsurans, T. violaceum and Trichophyton mentagrophytes and spread on the appropriate plates, excess moisture was allowed to absorb for 10 minutes before applying disks. Immediately prior to the assay, the testing compound of formula 1, object of the present invention, the reference compounds amphotericin B and nystatin, potency approx:750 μ/mg and 480 USP unit/mg respectively, were reconstituted in triplicate in dimethylsulfoxide. […] From the stock solution 10 μl were spread on the paper disk so as to obtain final concentration of 50 μg disc^−1, 25 μg disc^−1, 12.5 μg disc^−1, 6.25 μg disc^−1 and 3.12 μg disk^−1. Disks were dried at reduced pressure in the dessicator, at 28-29° C. and applied to innoculated plates.
(§5) In testing, the compound of formula 1 was reconstituted in dimethylsulfoxide (DMSO) immediately prior to all assays. Dimethylsulfoxide (DMSO) alone had no detectable inhibitory effect on any of the tested microbes. Compound of formula 1 was tested against a diverse collection of yeast and filamentous fungi, some of which are resistant to the reference compound nystatin. Filamentous fungi were nystatin resistant.

Candida sp. [11] = assay: as above; format: cell-based; conditions: 3.12-50 μg per disk tested, 42-120 hrs at room temperature
Text: as §1, §2, §4, §5

Cryptococcus neoformans [12] = assay: as above; format: cell-based; conditions: 3.12-50 μg per disk tested, 42-120 hrs at room temperature
Text: as §1, §2, §4, §5

Microsporum gypseum [13] = assay: as above; format: cell-based; conditions: 3.12-50 μg per disk tested, 42-120 hrs at room temperature
Text: as §1, §2, §4, §5

T. violaceum [14] = assay: as above; format: cell-based; conditions: 3.12-50 μg per disk tested, 42-120 hrs at room temperature
Text: as §1, §2, §4, §5

[15] = tested on: Trichophyton mentagrophytes; assay: as above; format: cell-based; conditions: 3.12-50 μg per disk tested, 42-120 hrs at room temperature
Text: as §1, §2, §4, §5

[16] = tested on: strains of yeast and filamentous fungi; assay: In vitro antifungal activity, disk diffusion, whole panel (summary in words); format: cell-based; conditions: for antifungal activity in words: all the strains of yeast and filamentous fungi tested
Procedure: as §4, §5

Aspergillus niger [17] = assay: Minimum Inhibitory Concentration (MIC), disk diffusion method; format: cell-based; conditions: 3.12-50 μg per disk tested, 42-120 hrs at room temperature
Text: as §1, §2, §4, §5

Cladosporium cucumerinum = conditions: plant pathogenic fungus Cladosporium cucumerinum; cited from earlier work

Molecule	Disk Diffusion Method, zone of inhibition (T. tonsurans [1])	Disk Diffusion Method, zone of inhibition (Aspergillus fresenii [2])	Disk Diffusion Method, zone of inhibition (Aspergillus niger [3])	Disk Diffusion Method, zone of inhibition (Candida sp. [4])	Disk Diffusion Method, zone of inhibition (Cryptococcus neoformans [5])	Disk Diffusion Method, zone of inhibition (Microsporum gypseum [6])	Disk Diffusion Method, zone of inhibition (T. violaceum [7])	Disk Diffusion Method, zone of inhibition [8]	MIC (T. tonsurans [9])	MIC (Aspergillus fresenii [10])	MIC (Candida sp. [11])	MIC (Cryptococcus neoformans [12])	MIC (Microsporum gypseum [13])	MIC (T. violaceum [14])	MIC [15]	antifungal activity in words [16]	MIC (Aspergillus niger [17])	sensitivity of filamentous fungi in words ([16]; filamentous fungi)	antifungal amount in TLC bioassay (Cladosporium cucumerinum)
3-O-α-rhamnopyranosyl-rhamnopyranosyl-glucopyranosyl-glucoronopyranosylgluco-pyrano side 16 α-hydroxy-13,28-epoxy oleanane [Compound 1]	14 mm	10 mm	4 mm	9 mm	9 mm	14 mm	13 mm	12 mm	12.5-25 μg. disk^−1	25-50 μg. disk^−1	6.25-12.5 μg. disk^−1	6.25-12.5 μg. disk^−1	12.5-25 μg. disk^−1	25-50 μg. disk^−1	25-50 μg. disk^−1	fungicidal against all the strains of yeast and filamentous fungi tested except Aspergillus niger	–	–	–
C[C@@H]1[C@H](O)[C@@H](C)/C=C/C=C/C=C/C=C/C=C/C=C/C=C/[C@H](O[C@@H]2O[C@H](C)[C@@H](O)[C@H](N)[C@@H]2O)C[C@@H]2O[C@](O)(C[C@@H](O)C[C@@H](O)[C@H](O)CC[C@@H](O)C[C@@H](O)CC(=O)O[C@H]1C)C[C@H](O)[C@H]2C(=O)O [Amphotericin B, reference compound]	–	–	–	–	–	–	–	–	6.25-12.5 μg. disk^−1	12.5-25 μg. disk^−1	3.12-6.25 μg. disk^−1	3.12-6.25 μg. disk^−1	6.25-12.5 μg. disk^−1	6.25-12.5 μg. disk^−1	6.25-12.5 μg. disk^−1	sensitive	12.5-25 μg. disk^−1	–	–
C[C@@H]1[C@H](O)[C@@H](C)/C=C/C=C/CC/C=C/C=C/C=C/C=C/C(O[C@H]2O[C@H](C)[C@@H](O)[C@H](N)[C@@H]2O)CC2O[C@](O)(CC(O)C(O)CCC(O)CC(O)CC(O)CC(=O)O[C@H]1C)CC(O)C2C(=O)O (some centres unmarked) [Nystatin]	–	–	–	–	–	–	–	–	–	–	6.25-12.5 μg. disk^−1	6.25-12.5 μg. disk^−1	–	–	–	–	–	resistant	–
Sakurasaponin	–	–	–	–	–	–	–	–	–	–	–	–	–	–	–	–	–	–	1 µg
